{"source": "patent US20130230571A1", "about": "“MACROCYCLIC LACTONE COMPOUNDS AND METHODS FOR THEIR USE” (Elixir Medical Corporation, priority 2010, published 2013)", "key": {"[1]": {"tested_on": "human smooth muscle cell", "assay": "in vitro human smooth muscle cell culture testing, incorporated thymidine", "type": "cell-based", "settings": "exposure for 8 hours; human smooth muscle cells; read-out: IC50 (incorporated thymidine, anti-proliferative)", "experimental": "The amounts of incorporated thymidine for samples of myolimus of varying concentrations (0.0001, 0.001, 0.01, 0.1, and 1 μM) and of rapamycin of varying concentrations (0.0001, 0.001, 0.01, 0.1, and 1 μM) were measured after exposure for 8 hours (as shown in FIG. 1). The IC50 of both myolimus and rapamycin was 0.1 nM indicating potent anti-proliferative properties."}, "[2]": {"tested_on": "MCP-1", "assay": "MCP-1 production by LPS-activated macrophages, ELISA", "type": "cell-based", "settings": "10 nM", "experimental": "(§1) In cell culture studies, macrophages were activated to secrete cytokines such as MMP-9 and MCP-1 by treating the cells to E Coli lippopolysaccharide (LPS). Inhibition of these cytokines upon treatment of the activated macrophages with myolimus and rapamycin with 10 nM concentration was tested using ELISA assay."}, "[3]": {"tested_on": "MMP-9", "assay": "MMP-9 production by LPS-activated macrophages, ELISA", "type": "cell-based", "settings": "10 nM", "experimental": "as §1"}, "[4]": {"settings": "cited from earlier work"}}, "note": "“Also recorded” adds a separate entry of the source.", "data": [{"smiles": "CO[C@H]1C[C@@H]2CC[C@@H](C)[C@@](O)(O2)C(=O)C(=O)N2CCCC[C@H]2C(=O)O[C@H]([C@H](C)C[C@@H]2CC[C@@H](O)[C@H](OC)C2)CC[C@H](C)/C=C(\\C)[C@@H](O)[C@@H](OC)C(=O)[C@H](C)C[C@H](C)/C=C/C=C/C=C/1C", "note": "[myolimus, 32-deoxo-rapamycin]", "values": [{"measurement": "IC50", "setting": "[1]", "value": 100, "unit": "pM"}, {"measurement": "production of cytokine MCP-1", "setting": "[2]", "value": "inhibiting the production"}, {"measurement": "production of cytokine MCP-1", "setting": "[2]; listed as Myolimus", "value": "reduced the production"}, {"measurement": "production of the cytokine MMP-9", "setting": "[3]", "value": "inhibiting production of MMP-9"}, {"measurement": "production of the cytokine MMP-9", "setting": "[3]; listed as Myolimus", "value": "reduced the production"}]}, {"smiles": "CO[C@H]1C[C@@H]2CC[C@@H](C)[C@@](O)(O2)C(=O)C(=O)N2CCCC[C@H]2C(=O)O[C@H]([C@H](C)C[C@@H]2CC[C@@H](O)[C@H](OC)C2)CC(=O)[C@H](C)/C=C(\\C)[C@@H](O)[C@@H](OC)C(=O)[C@H](C)C[C@H](C)/C=C/C=C/C=C/1C", "note": "[rapamycin, Rapamycin]", "values": [{"measurement": "IC50", "setting": "[1]", "value": 100, "unit": "pM"}, {"measurement": "solubility in water", "setting": "[4]", "value": "very slightly soluble in water"}, {"measurement": "production of cytokine MCP-1", "setting": "[2]", "value": "did not impact the production of MCP-1; also recorded: did not have any impact"}, {"measurement": "production of the cytokine MMP-9", "setting": "[3]", "value": "increased the production of MMP-9"}, {"measurement": "production of the cytokine MMP-9", "setting": "[3]; listed as Rapamycin", "value": "increased the production"}]}]}
